{
  "source": "patent US20100190849A1",
  "about": "“Novel Clerodanes and Methods for Repelling Arthropods” (priority 2006, published 2010)",
  "key": {"Aedes aegypti [1]": {"system": "Aedes aegypti", "assay": "K & D module mosquito anti-biting (repellent) bioassay", "assay_type": "in vivo", "procedure": "Insects: Ae. aegypti(L.) (red eye Liverpool strain) and An. stephensi Liston used in the study were from colonies maintained at the Walter Reed Army Institute of Research, Silver Spring, Md. […] Adults were maintained in a photoperiod of 12:12 (L:D) h at 27° C. and 80% RH with cotton pads moistened with 10% aqueous sucrose solution. Mated females were 5-15 d old when they were used in bioassays. Ae. aegypti females had access only to water 24 h and neither food nor water for another 24 h before testing. An. stephensi females were provided with water alone 24 h before testing.\nRoutinely, a six-celled K & D module containing five mosquitoes/cell was positioned over cloth treatments covering the six blood-membrane wells, and trap doors of the K&D modules were opened to expose the treatments to the sets of mosquitoes. After a 3 minute exposure, the number of mosquitoes biting through cloth treatments in each cell was recorded and mosquitoes were prodded back into the cells. […] Experiments were replicated 12, 18, 32, or 56 times. Thus, 60, 90, 160. or 280 mosquitoes were tested against each treatment depending on the experiment, and the proportion of mosquitoes not biting for each treatment was calculated. For each experiment, conducted in different time periods, logistic regression was used to make two sets of one degree-of-freedom contrasts (t-tests): treatments vs. control and treatments vs. SS220 for anti-biting activity within each experiment. The level of significance was set at P=0.05. In all, we conducted 8 biological experiments, and all experiments used Ae. aegypti as the test mosquito with exception of Experiment 7 which used An. stephensi.\nEach experiment was replicated 18 times.\nExperiments 3, 4, and 5: In each of these experiments, chromatographic fractions of essential oil at their respective percentage compositions of 100 μg essential oil/cm^2 cloth, 100 μg unfractionated essential oil/cm^2 cloth, 25 nmol SS-220/cm^2 cloth and control were compared for mosquito anti-biting activity. Each experiment was replicated 18 times.\n(§1) Experiments 6 and 7: These experiments compared the anti-biting activities of SS-220, and plant-isolated callicarpenal, humulene epoxide II, intermedeol and spathulenol at 25 nmol compound/cm^2 cloth versus control against Ae. aegypti and An. stephensi, respectively. Experiment 6 was replicated 32 times and 7 had 56 replicates\nThe percentage composition of the mixture was a normalized percentage of active components in C. japonica essential oil based upon GC-MS analysis total ion Area % analysis based on largest peaks. Other treatments in the experiment were SS220, callicarpenal, intermedeol, and spathulenol each at 25 nmol/cm^2 cloth versus control."}, "Anopheles stephensi": {"system": "Anopheles stephensi", "assay": "K & D module mosquito anti-biting (repellent) bioassay", "assay_type": "in vivo", "settings": "25 nmol compound/cm^2 cloth; for Proportion Not Biting: Exp. 7, 56 replicates; for repellent activity (in words): Experiment 7", "description": "Insects: Ae. aegypti(L.) (red eye Liverpool strain) and An. stephensi Liston used in the study were from colonies maintained at the Walter Reed Army Institute of Research, Silver Spring, Md. The insects were reared by feeding larvae ground tropical fish flakes (Tetramin Tropical Fish Flakes, Tetra Sales, Blacksburg, Va., www.tetra-fish.com)(Gerberg, E. j., et al., Manual for mosquito rearing and experimental techniques. Amer. Mosq. Control Assoc. Bull. No. 5 (revised), 1994, AMCA. inc., Lake Charles, La.). Adults were maintained in a photoperiod of 12:12 (L:D) h at 27° C. and 80% RH with cotton pads moistened with 10% aqueous sucrose solution. Mated females were 5-15 d old when they were used in bioassays. Ae. aegypti females had access only to water 24 h and neither food nor water for another 24 h before testing. An. stephensi females were provided with water alone 24 h before testing.\nMosquito Bioassay Methods: Experiment were conducted by using, a six-celled in vitro Klun & Debboun (K & D) module bioassay system developed by klun et al. (Klum J. A., et al., Journal of the American Mosquito Control Association. 21: 64-70 (2005)) for quantitative, evaluation of mosquito-repellent (anti-biting) properties of candidate repellent compounds for human use.\n(§2) Plant extracts, fractions, or isolated pure plant derived compounds in 95% ethanol solution were each randomly applied to six-4×5 cm areas of organdy cloth and positioned over the membrane-covered blood. A replicate consisted of six treatments: four test chemicals or extract fractions, 95% ethanol treated cloth as control and unfractionated plant extract or a standard repellent compound, (1S, 2′S)-2-methylpiperidinyl-3-cyclohexen-1-carboxamide (SS220) at 25 nmol/cm^2 cloth. The 25 nmol SS220/cm^2 cloth dose was used as a standard, because it was known from human volunteer and in vitro assays to consistently suppress mosquito biting by 80% or more compared to controls in replicated assays (Klun, J. A., et al., Journal of the American Mosquito Control Association, 21: 64-70 (2005)). […] Routinely, a six-celled K & D module containing five mosquitoes/cell was positioned over cloth treatments covering the six blood-membrane wells, and trap doors of the K&D modules were opened to expose the treatments to the sets of mosquitoes. After a 3 minute exposure, the number of mosquitoes biting through cloth treatments in each cell was recorded and mosquitoes were prodded back into the cells. In Experiment 8, we retained all mosquitoes in their respective K&D module cells, each fitted with a water-moist piece of cotton, and observed the mosquitoes for total mosquito toxic knockdown at 6 min, 1 hr, and 24 hr post-treatment exposure. Experiments were replicated 12, 18, 32, or 56 times. Thus, 60, 90, 160. or 280 mosquitoes were tested against each treatment depending on the experiment, and the proportion of mosquitoes not biting for each treatment was calculated. For each experiment, conducted in different time periods, logistic regression was used to make two sets of one degree-of-freedom contrasts (t-tests): treatments vs. control and treatments vs. SS220 for anti-biting activity within each experiment. The level of significance was set at P=0.05. In all, we conducted 8 biological experiments, and all experiments used Ae. aegypti as the test mosquito with exception of Experiment 7 which used An. stephensi.\nas §1"}, "Aedes aegypti [2]": {"system": "Aedes aegypti", "assay": "Total mosquito toxic knockdown after K & D module exposure (Experiment 8)", "assay_type": "in vivo", "settings": "Exp. 8, 25 nmol/cm^2 cloth; for Total Knock down 6 min: dead mosquitoes 6 min post-treatment exposure; for Total knock down 1 hr: dead mosquitoes 1 hr post-treatment exposure; for Total knock down 24 hr: dead mosquitoes 24 hr post-treatment exposure", "description": "as §2\nExperiment 8: This experiment (12 replicates) compared the antibiting activities of a mixture (25 nmol/cm^2 cloth) of 11.5% callicarpenal, 47.1% intermedeol, and 41.4% spathulenol. The percentage composition of the mixture was a normalized percentage of active components in C. japonica essential oil based upon GC-MS analysis total ion Area % analysis based on largest peaks. Other treatments in the experiment were SS220, callicarpenal, intermedeol, and spathulenol each at 25 nmol/cm^2 cloth versus control. In addition to measurement of anti-biting activity, the number of dead mosquitoes observed at three time intervals were recorded for the six treatments."}, "mosquito": {"system": "mosquito", "settings": "25 nmol SS220/cm^2 cloth; replicated assays; cited from earlier work"}, "An. stephensi": {"system": "An. stephensi", "settings": "in vivo; cited from earlier work"}, "Aedes aegypti [3]": {"system": "Aedes aegypti", "settings": "in vivo; cited from earlier work"}, "[4]": {"settings": "Table 7, Example 2, synthetic compounds, dose not given"}, "[5]": {"settings": "Exp. 6, 25 nmol compound/cm^2 cloth, 32 replicates"}, "[6]": {"settings": "Exp. 8, 25 nmol/cm^2 cloth, 12 replicates"}, "[7]": {"settings": "Experiment 6, 25 nmol compound/cm^2 cloth"}, "[8]": {"settings": "Table 8, Example 3, synthetic compounds, dose not given"}},
  "note": "Marks after values point to notes of the source that are not given here.",
  "data": [
    {"compound": "CC1=CCC[C@@H]2[C@@](C)(CCO)[C@H](C)CC[C@@]12C", "note": "[13,14,15,16-tetranorclerod-3-en-12-ol]", "values": [
      {"measurement": "biting deterrent efficacy (in words)", "setting": "Aedes aegypti [1]; Example 2, Table 7", "result": "equivalent to both callicarpenal and picaridin"},
      {"measurement": "Proportion Not Biting", "setting": "Aedes aegypti [1]; [4]", "result": "0.68^b"}
    ]},
    {"compound": "C[C@H]1CCCCN1C(=O)[C@@H]1CC=CCC1", "note": "[SS220, (1S, 2′S)-2-methylpiperidinyl-3-cyclohexen-1-carboxamide, reference compound]", "values": [
      {"measurement": "Proportion Not Biting", "setting": "Aedes aegypti [1]; Exp. 1, 25 nmole/cm^2 cloth, 3 minute exposure", "result": "0.81^c"},
      {"measurement": "Proportion Not Biting", "setting": "Aedes aegypti [1]; Exp. 2, 25 nmole/cm^2 cloth", "result": "0.90^c"},
      {"measurement": "Proportion Not Biting", "setting": "Aedes aegypti [1]; Exp. 3, 25 nmole/cm^2", "result": "1.00^c"},
      {"measurement": "Proportion Not Biting", "setting": "Aedes aegypti [1]; Exp. 4, 25 nmole/cm^2", "result": "0.92^c"},
      {"measurement": "Proportion Not Biting", "setting": "Aedes aegypti [1]; Exp. 5, 25 nmole/cm^2", "result": "0.95^c"},
      {"measurement": "Proportion Not Biting", "setting": "Aedes aegypti [1]; [5]", "result": "0.80^c"},
      {"measurement": "Proportion Not Biting", "setting": "Aedes aegypti [1]; [6]", "result": "0.67^c"},
      {"measurement": "Proportion Not Biting", "setting": "Anopheles stephensi", "result": "0.78^c"},
      {"measurement": "Total Knock down 6 min", "setting": "Aedes aegypti [2]", "result": 0},
      {"measurement": "Total knock down 1 hr", "setting": "Aedes aegypti [2]", "result": 1},
      {"measurement": "Total knock down 24 hr", "setting": "Aedes aegypti [2]", "result": 2},
      {"measurement": "suppression of mosquito biting compared to controls", "setting": "mosquito", "result": "≥ 80", "unit": "%"},
      {"measurement": "repellent activity compared with bench mark repellents (in words)", "setting": "An. stephensi", "result": "equivalent to bench mark repellent compounds Deet and Bayrepel"},
      {"measurement": "repellent activity compared with bench mark repellents (in words)", "setting": "Aedes aegypti [3]", "result": "more effective than Bayrepel"}
    ]},
    {"compound": "C/C1=C\\CC(C)(C)/C=C/C[C@@]2(C)O[C@@H]2CC1", "note": "[humulene epoxide II]", "values": [
      {"measurement": "Proportion Not Biting", "setting": "Aedes aegypti [1]; [5]", "result": "0.48^a"},
      {"measurement": "repellent activity (in words)", "setting": "Aedes aegypti [1]; [7]", "result": "no repellent activity"},
      {"measurement": "Proportion Not Biting", "setting": "Anopheles stephensi", "result": "0.58^a"},
      {"measurement": "repellent activity (in words)", "setting": "Anopheles stephensi", "result": "not different from the control"}
    ]},
    {"compound": "CCC(C)OC(=O)N1CCCCC1CCO", "note": "(stereo not shown) [picaridin, 2-(2-hydroxyethyl)-1piperidinecarboxylic acid 1-methylpropyl ester, reference compound]", "values": [
      {"measurement": "Proportion Not Biting", "setting": "Aedes aegypti [1]; [4]", "result": "0.62^b"}
    ]},
    {"compound": "C=C1CC[C@@H]2[C@H]([C@H]3[C@H]1CC[C@]3(C)O)C2(C)C", "note": "[spathulenol, (1R,4S,5R,6R,7R)-aromadendr-10(14)-en-4-ol]", "values": [
      {"measurement": "Proportion Not Biting", "setting": "Aedes aegypti [1]; [5]", "result": "0.73^c"},
      {"measurement": "Proportion Not Biting", "setting": "Aedes aegypti [1]; [6]", "result": "0.48^b"},
      {"measurement": "repellent activity (in words)", "setting": "Aedes aegypti [1]; [7]", "result": "equally active"},
      {"measurement": "repellent activity (in words)", "setting": "Aedes aegypti [1]; Experiment 8, 25 nmol/cm^2 cloth", "result": "significantly different from the control"},
      {"measurement": "Proportion Not Biting", "setting": "Anopheles stephensi", "result": "0.75^c"},
      {"measurement": "repellent activity (in words)", "setting": "Anopheles stephensi", "result": "as effective as SS220"},
      {"measurement": "Total Knock down 6 min", "setting": "Aedes aegypti [2]", "result": 1},
      {"measurement": "Total knock down 1 hr", "setting": "Aedes aegypti [2]", "result": 2},
      {"measurement": "Total knock down 24 hr", "setting": "Aedes aegypti [2]", "result": 0}
    ]},
    {"compound": "C[C@@H]1CC[C@]2(C)[C@H](CC[C@@H]3O[C@@]32C)[C@@]1(C)CC=O", "note": "[β-epoxycallicarpenal]", "values": [
      {"measurement": "biting deterrent efficacy (in words)", "setting": "Aedes aegypti [1]; Example 3, Table 8", "result": "equivalent to callicarpenal"},
      {"measurement": "Proportion Not Biting", "setting": "Aedes aegypti [1]; [8]", "result": "0.70^b"}
    ]},
    {"compound": "α-epoxycallicarpenal", "values": [
      {"measurement": "biting deterrent efficacy (in words)", "setting": "Aedes aegypti [1]; Example 3, Table 8", "result": "equivalent to callicarpenal"},
      {"measurement": "Proportion Not Biting", "setting": "Aedes aegypti [1]; [8]", "result": "0.68^b"}
    ]}
  ]
}
